Data on one molecule can be found in US20240196932A1, “NOVEL USE” (DSM IP Assets B.V., priority 2021, published 2024).

The subject of this assay is rumen liquor. Description: In vitro test for methane production (modified Hohenheim Forage value Test, HFT). The class given is cell-based. The note with it: for Total methane change [% vs. control]: TMR feed, 8 hours at 39° C, average of four to eight experiments. On the procedure: In vitro test for methane production: A modified version of the “Hohenheim Forage value Test (HFT)” was used for testing the effect of specific compounds on the rumen functions mimicked by this in-vitro system.
Principle: Feed is gadded into a syringe with a composition of rumen liquor and an appropriate mixture of buffers. The solution is incubated at 39° C. After 8 hours the quantity (and composition) of gas phase produced is measured and put into a formula for conversion.
Sample weighing: The feed stuff (i.e. TMR (44% concentrate, 6% hay, 37% maize silage and 13% grass silage) is sieved to 1 mm and weighed exactly into 64 syringes. 4 of these syringes are the substrate controls, which display the gas production without the effect of the tested compounds. The remaining syringes contain the test substances, by groups of 4 syringes.
The components are mixed in a Woulff bottle in following order: • 711 ml water • 0.18 ml trace element solution • 355.5 ml buffer solution • 355.5 ml mass element solution • The completed solution is warmed up to 39° C.followed by the addition of 1.83 ml sodium salt solution and the addition of reduction solution at 36° C. The rumen liquor is added, when the indicator turns colourless.
Extraction of the rumen liquor: 750 ml of rumen liquor are added to approximately 1,400 ml of medium solution under continued agitation and CO2-gassing.
Filling the syringes, incubation and determining gas volumes and VFA values: The diluted rumen fluid (24 ml) is added to the glass syringe. The syringes are then incubated for 8 hours at 39° C.under gentle agitation. After 8 hours, the volume of gas produced is measured, and the percentage of methane in the gas phase is determined by gas chromatography.
The food fermented was artificial TMR (44% concentrate, 6% hay, 37% maize silage and 13% grass silage). Gossypol was obtained from Sigma-Aldrich (G8761), and used at a concentration as outlined in table 1. 3-Nitrooxy-propanol (3-NOP) was used at the concentration as outlined in table 1.

Structures are written as SMILES.

For the molecule `Cc1cc2c(C(C)C)c(O)c(O)c(C=O)c2c(O)c1-c1c(C)cc2c(C(C)C)c(O)c(O)c(C=O)c2c1O` (racemic) [gossypol, Gossypol], the “Total methane change [% vs. control]” value is, setting by setting: (gossypol 5 μM, listed as prints 2 g/animal/day) −1 % vs. control; (gossypol 10 μM, listed as prints 4.3 g/animal/day) −11 % vs. control; (gossypol 20 μM, listed as prints 8.6 g/animal/day) −15 % vs. control; (gossypol 100 μM, listed as prints 17.3 g/animal/day) −69 % vs. control. Also, the methane reduction result (gossypol concentrations of at least 7.5 g gossypol/animal/day) is given as “Clear effects”.
